Laboratory results taken from ChEMBL document CHEMBL1156760, “Synthesis and biological evaluation of new nanomolar competitive inhibitors of Helicobacter pylori type II dehydroquinase. Structural details of the role of the aromatic moieties with essential residues” (J Med Chem, 2010).

Target: T1, 3-dehydroquinate dehydratase (Helicobacter pylori (strain ATCC 700392 / 26695) (Campylobacterpylori), UniProt Q48255)
T1 sequence (Q48255 whole entry): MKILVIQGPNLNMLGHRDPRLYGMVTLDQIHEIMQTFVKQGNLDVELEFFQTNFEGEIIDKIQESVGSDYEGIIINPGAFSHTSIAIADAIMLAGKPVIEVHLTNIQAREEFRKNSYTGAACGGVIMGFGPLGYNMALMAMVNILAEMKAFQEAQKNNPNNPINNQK
Assay: Inhibition of Helicobacter pylori DHQ2 by UV spectroscopy

With `O=C(O)[C@]1(O)C=C(OCc2cc3ccccc3s2)[C@@H](O)[C@H](O)C1` the Ki was 132 nM.
